In publication PMC8357487 (Current Research in Pharmacology and Drug Discovery, 2021):
Where two headings read alike, the source gives them in different places.

Assays:
[1] = Cytotoxicity, MTS method, Vero CCL-81; assay type: cell-based; conditions: African monkey, Vero CCL-81 cells
[2] = Cytotoxicity, MTS method, Huh-7; assay type: cell-based, human; conditions: human, Huh-7 cells
[3] = Cytotoxicity, MTS method, Caco-2; assay type: cell-based; conditions: human, Caco-2 cells
[4] = Cytotoxicity, MTS method, Calu-3; assay type: cell-based; conditions: human, Calu-3 cells
[5] = test system: SARS-CoV-2; conditions: Caco-2 cells; ref Li et al., 2021a; cited from earlier work
[6] = test system: icSARS-CoV-2-mNG; assay: microbe, parasite or virus in culture; assay type: cell-based, SARS-CoV-2; conditions: for EC50: Severe acute respiratory syndrome coronavirus 2, Caco-2, 48 h, read-out: mean EC50, icSARS-CoV-2-mNG inhibition assay
[7] = test system: SARS-CoV-2; assay: microbe, parasite or virus in culture; assay type: cell-based
[8] = test system: Huh-7 cells; assay: Cytotoxicity, MTS method, Huh-7; assay type: cell-based, human; conditions: MTS
[9] = humans; ref Humeniuk et al., 2020; cited from earlier work
[10] = monkeys; ref Warren et al., 2016; cited from earlier work
[11] = Severe acute respiratory syndrome coronavirus 2, 48 h
[12] = Severe acute respiratory syndrome coronavirus 2, Caco-2, 72 h
[13] = Severe acute respiratory syndrome coronavirus 2, Calu-3, 72 h

N#C[C@@]1(c2ccc3c(N)ncnn23)O[C@H](CO)[C@@H](O)[C@H]1O [GS-441524]
CC50 [1]: > 100 µM
CC50 [2]: > 100 µM
CC50 [3]: > 100 µM
CC50 [4]: > 100 µM
Difference in EC50 between GS-441524 and remdesivir [5]: 6 fold
EC50 difference of GS-441524 compared to remdesivir, icSARS-CoV-2-mNG assay ([6]; Caco-2 cells): 70 fold
EC50 [6]: 1.3 µM
EC50 [7, 11]: 0.8 µM
EC90 [7, 11]: 1.6 µM
EC50 [7, 12]: 0.08 µM
EC90 [7, 12]: 1.42 µM
EC50 [7, 13]: 0.25 µM
EC90 [7, 13]: 2.35 µM

CCC(CC)COC(=O)[C@H](C)N[P@](=O)(OC[C@H]1O[C@@](C#N)(c2ccc3c(N)ncnn23)[C@H](O)[C@@H]1O)Oc1ccccc1 [Remdesivir]
Cytotoxicity in words [8]: quite toxic
CC50 [2]: 2.1 µM
CC50 [3]: > 100 µM
CC50 [4]: 72.8 µM
plasma half-life [9]: ~1 h
EC50 [6]: 0.018 µM
plasma half-life [10]: about 0.4 h
EC50 [7, 11]: 0.7 µM
EC90 [7, 11]: 1.7 µM
EC50 [7, 12]: 0.001 µM
EC90 [7, 12]: 0.022 µM
EC50 [7, 13]: 0.11 µM
EC90 [7, 13]: 0.49 µM
